Measurements reported in the NIST ThermoML archive (doi:10.1021/je060271a).
Several values for one entry are separate records, joined by “and”; a condition that tells them apart may be missing. Identical values can stand only once. ± gives the expanded uncertainty stated by the source.

Conditions: 343.16 K, Liquid, Vibrating tube method

Measured: mass density

CCCCCC(=O)OCC(COC(=O)CCCCC)(COC(=O)CCCCC)COC(=O)CCCCC [pentaerythritol tetrahexanoate]
972.1 ± 1.2 kg/m3: 20626 kPa | 20689 kPa | 20727 kPa
973.6 ± 1.2 kg/m3: 23002 kPa
973.9 ± 1.2 kg/m3: 23212 kPa | 23246 kPa | 23274 kPa | 23514 kPa
974.5 ± 1.2 kg/m3: 23971 kPa
974.3 ± 1.2 kg/m3: 23914 kPa | 23941 kPa | 24028 kPa | 24080 kPa | 24106 kPa
974.4 ± 1.2 kg/m3: 24137 kPa | 24163 kPa | 24190 kPa | 24221 kPa | 24248 kPa | 24279 kPa | 24306 kPa
972.2 ± 1.2 kg/m3: 20759 kPa | 20790 kPa | 20860 kPa | 20892 kPa
974.1 ± 1.2 kg/m3: 23484 kPa | 23540 kPa | 23646 kPa | 23671 kPa | 23696 kPa | 23727 kPa
976.8 ± 1.2 kg/m3: 27630 kPa | 27660 kPa | 27697 kPa | 27758 kPa | 27787 kPa
973.2 ± 1.2 kg/m3: 22183 kPa | 22322 kPa | 22348 kPa | 22458 kPa
971.7 ± 1.2 kg/m3: 19959 kPa | 20042 kPa | 20054 kPa | 20086 kPa | 20108 kPa | 20118 kPa | 20119 kPa | 20122 kPa
971.6 ± 1.2 kg/m3 and 971.8 ± 1.2 kg/m3: 20124 kPa
972.8 ± 1.2 kg/m3: 21757 kPa | 21782 kPa
972.7 ± 1.2 kg/m3: 21399 kPa | 21732 kPa
973.8 ± 1.2 kg/m3: 23092 kPa | 23125 kPa | 23154 kPa | 23183 kPa | 23332 kPa
973.4 ± 1.2 kg/m3: 22547 kPa | 22573 kPa
973 ± 1.2 kg/m3: 22102 kPa | 22157 kPa
976.9 ± 1.2 kg/m3: 27854 kPa
976.1 ± 1.2 kg/m3: 26698 kPa
971.8 ± 1.2 kg/m3: 19990 kPa | 20010 kPa | 20065 kPa | 20099 kPa | 20105 kPa | 20106 kPa | 20111 kPa | 20114 kPa | 20116 kPa | 20117 kPa | 20140 kPa | 20204 kPa | 20239 kPa | 20298 kPa | 20328 kPa | 20395 kPa | 20462 kPa
972.3 ± 1.2 kg/m3: 20657 kPa | 20828 kPa | 20963 kPa | 20998 kPa
973.1 ± 1.2 kg/m3: 22050 kPa | 22076 kPa | 22132 kPa | 22214 kPa | 22240 kPa | 22266 kPa | 22296 kPa | 22405 kPa
973.3 ± 1.2 kg/m3: 22379 kPa | 22432 kPa | 22489 kPa | 22515 kPa
976.3 ± 1.2 kg/m3: 26785 kPa | 26812 kPa
974 ± 1.2 kg/m3: 23301 kPa | 23381 kPa | 23410 kPa | 23435 kPa | 23459 kPa | 23566 kPa | 23616 kPa | 23752 kPa
972.4 ± 1.2 kg/m3: 20930 kPa | 21030 kPa | 21101 kPa | 21134 kPa
971.9 ± 1.2 kg/m3: 20174 kPa | 20269 kPa | 20365 kPa | 20558 kPa
976 ± 1.2 kg/m3: 26725 kPa
972.5 ± 1.2 kg/m3: 21068 kPa | 21166 kPa | 21238 kPa | 21271 kPa
972.9 ± 1.2 kg/m3: 21811 kPa | 22020 kPa
972.6 ± 1.2 kg/m3: 21309 kPa | 21339 kPa | 21372 kPa | 21426 kPa
971.6 ± 1.2 kg/m3: 19975 kPa | 20026 kPa | 20075 kPa | 20121 kPa
972 ± 1.2 kg/m3: 20426 kPa | 20493 kPa | 20525 kPa | 20589 kPa
976.7 ± 1.2 kg/m3: 27728 kPa | 27824 kPa
973.7 ± 1.2 kg/m3: 23035 kPa | 23063 kPa
976.6 ± 1.2 kg/m3: 27601 kPa
974.2 ± 1.2 kg/m3: 23591 kPa | 23782 kPa | 23997 kPa | 24054 kPa
976.2 ± 1.2 kg/m3: 26758 kPa | 26845 kPa
